Test system: HFF1 cell line (consisting of fibroblasts derived from human skin)
Assay: MTT cell viability assay
Format: cell-based
Details: HFF1 cells, 5 hours incubation; carnosine alone 0.136 mM
Protocol: Trial design. The cell response of conjugate (1) in terms of cell viability was determined in vitro by performing the MTT assay (Mosmann T, J Immunol Methods 1983; 65:55-63) on the HFF1 cell line (consisting of fibroblasts derived from human skin). The cells were used at passages 20-23, cultured at 37°C and 5% CO2 in Dulbecco's Modified Eagle Medium (DMEM) with integrated glucose and added with FBS (1%). To conduct the MTT assay, the cells were plated in 96-well multiwell plates (7000 cells per well) in DMEM culture medium with integrated glucose and added with 1% FBS; after 48 hours they were treated with control medium, or with medium alternatively containing carnosine, conjugate (1) prepared as described in EXAMPLE 1, or complexes of conjugate (1) with Cu(II), for 5 hours of incubation at 37°C and 5% CO2. Each treatment was performed in triplicate. […] After removal of the liquid from each well and addition of DMSO (100 µl), the absorbance of the formazan salt (blue) produced by the cleavage reaction of the tetrazolium ring of MTT (yellow) by the mitochondrial enzyme succinate dehydrogenase present in the viable cells only was measured in a multiplate reader (Synergy™ 2 Multi-Mode Microplate Reader) at the wavelength of 570 nm. […]

NCCC(=O)N[C@@H](Cc1c[nH]cn1)C(=O)O [carnosine, β-alanyl-L-histidine]
increase in cell viability: did not lead to any increase in cell viability

— patent publication EP3922268B1, “NEW DERIVATIVES OBTAINED FROM HYALURONIC ACID AND CARNOSINE” (Fidia Farmaceutici S.p.A., priority 2020, dated 2023)
